# Measurements: BindingDB's records for doi:10.1016/S0960-894X(01)80506-0 (n/a, 1994)
# Experiments:
# [1] = target: Beta-lactamase (Enterobacter cloacae, UniProt P05364); assay: Concentration required for its inhibitory activity against Enterobacter cloacae P99 class C beta-lactamase
# [2] = target: T1, Beta-lactamase (Escherichia coli, UniProt Q2V0Y6); assay: Concentration required for its inhibitory activity against Escherichia coli K12(PSE4) class A beta-lactamase
# T1 sequence (Q2V0Y6 whole entry): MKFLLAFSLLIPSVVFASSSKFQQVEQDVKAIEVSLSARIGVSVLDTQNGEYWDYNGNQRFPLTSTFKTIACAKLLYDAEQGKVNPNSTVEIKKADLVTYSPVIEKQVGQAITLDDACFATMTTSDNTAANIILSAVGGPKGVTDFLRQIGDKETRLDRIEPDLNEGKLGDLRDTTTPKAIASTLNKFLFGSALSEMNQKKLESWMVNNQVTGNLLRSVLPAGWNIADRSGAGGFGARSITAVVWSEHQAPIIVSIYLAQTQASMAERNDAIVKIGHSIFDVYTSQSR
# [3] = target: T2, Beta-lactamase (Proteus mirabilis, UniProt P30897); assay: Concentration required for its inhibitory activity against Proteus mirabilis C889 class A beta-lactamase
# T2 sequence (P30897 whole entry): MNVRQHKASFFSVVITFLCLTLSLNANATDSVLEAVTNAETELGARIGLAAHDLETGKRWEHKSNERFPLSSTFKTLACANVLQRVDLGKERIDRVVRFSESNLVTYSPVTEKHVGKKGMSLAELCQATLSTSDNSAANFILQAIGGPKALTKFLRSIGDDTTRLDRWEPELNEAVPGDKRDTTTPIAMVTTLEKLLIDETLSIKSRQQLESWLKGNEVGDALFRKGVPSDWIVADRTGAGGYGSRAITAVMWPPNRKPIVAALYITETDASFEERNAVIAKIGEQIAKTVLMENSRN
# [4] = target: Beta-lactamase TEM (Escherichia coli, UniProt P62593); assay: Concentration required for its inhibitory activity against Escherichia coli JT4(TEM1) class A beta-lactamase
# Sequence of Beta-lactamase TEM (P62593 whole entry): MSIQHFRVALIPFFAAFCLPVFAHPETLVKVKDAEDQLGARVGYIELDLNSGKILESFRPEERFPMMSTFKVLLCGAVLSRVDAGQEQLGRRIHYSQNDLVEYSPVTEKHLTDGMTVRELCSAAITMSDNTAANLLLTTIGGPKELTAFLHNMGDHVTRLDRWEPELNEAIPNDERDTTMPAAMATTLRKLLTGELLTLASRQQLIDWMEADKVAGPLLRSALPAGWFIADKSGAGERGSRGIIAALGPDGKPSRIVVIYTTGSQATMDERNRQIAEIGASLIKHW
# [5] = target: Beta-lactamase (Pseudomonas aeruginosa (strain ATCC 15692 / DSM 22644 / CIP 104116 / JCM 14847 / LMG 12228 / 1C / PRS 101 / PAO1), UniProt P24735); assay: Concentration required for its inhibitory activity against Pseudomonas aeruginosa class C beta-lactamase
# Sequence of Beta-lactamase (Pseudomonas aeruginosa (strain ATCC 15692 / DSM 22644 / CIP 104116 / JCM 14847 / LMG 12228 / 1C / PRS 101 / PAO1), UniProt P24735) (P24735 whole entry): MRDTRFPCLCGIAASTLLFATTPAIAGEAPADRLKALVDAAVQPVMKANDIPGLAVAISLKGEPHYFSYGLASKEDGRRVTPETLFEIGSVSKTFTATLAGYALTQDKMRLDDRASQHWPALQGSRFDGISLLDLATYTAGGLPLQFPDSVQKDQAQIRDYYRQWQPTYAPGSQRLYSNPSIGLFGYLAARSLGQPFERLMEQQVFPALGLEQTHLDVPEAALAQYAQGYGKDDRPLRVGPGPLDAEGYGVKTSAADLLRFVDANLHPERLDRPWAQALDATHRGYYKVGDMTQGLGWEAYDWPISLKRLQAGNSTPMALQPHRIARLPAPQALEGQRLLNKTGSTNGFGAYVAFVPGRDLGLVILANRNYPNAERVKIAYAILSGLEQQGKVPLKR
# [6] = target: Beta-lactamase OXA-1 (Escherichia coli, UniProt P13661); assay: Concentration required for its inhibitory activity against Escherichia coli K12(OXA1) class D beta-lactamase
# Sequence of Beta-lactamase OXA-1 (P13661 whole entry): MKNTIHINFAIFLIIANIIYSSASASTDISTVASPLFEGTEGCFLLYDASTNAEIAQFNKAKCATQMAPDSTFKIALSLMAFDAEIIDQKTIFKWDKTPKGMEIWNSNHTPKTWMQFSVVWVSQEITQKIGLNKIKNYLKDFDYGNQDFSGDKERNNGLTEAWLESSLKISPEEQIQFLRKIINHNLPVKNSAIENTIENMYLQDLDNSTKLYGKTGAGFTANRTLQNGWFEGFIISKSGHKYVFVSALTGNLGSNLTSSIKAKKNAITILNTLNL
# Sequence of Beta-lactamase (Enterobacter cloacae, UniProt P05364) (P05364 whole entry): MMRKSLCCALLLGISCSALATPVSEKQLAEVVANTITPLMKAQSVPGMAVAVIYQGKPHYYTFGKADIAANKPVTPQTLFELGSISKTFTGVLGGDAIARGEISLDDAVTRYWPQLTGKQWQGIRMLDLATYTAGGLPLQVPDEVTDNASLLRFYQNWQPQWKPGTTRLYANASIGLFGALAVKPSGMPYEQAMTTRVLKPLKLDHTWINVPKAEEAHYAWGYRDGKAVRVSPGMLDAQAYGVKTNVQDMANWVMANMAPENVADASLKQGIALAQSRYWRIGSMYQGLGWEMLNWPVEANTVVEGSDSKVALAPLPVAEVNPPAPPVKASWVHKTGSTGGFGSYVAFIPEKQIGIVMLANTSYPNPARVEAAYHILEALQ
Compound,IC50 [1],IC50 [2],IC50 [3],IC50 [4],IC50 [5],IC50 [6]
CCCCCCCCCCc1cccc(O)c1O,83.8 µM,–,–,–,–,–
CCCCCCCCc1cccc(O)c1C(=O)O,–,63.9 µM,15.5 µM,–,–,–
CCCCCCCCCCCCCCCc1cccc(O)c1 [3-pentadecylphenol],23.6 µM,65.6 µM,–,–,–,–
CC/C=C\C/C=C\C/C=C\CCCCCCCc1cccc(O)c1C(=O)O,45.8 µM,26.9 µM,–,13.4 µM,–,–
CC(C)CCCCCCCCCCCCCc1cccc(O)c1C(=O)O,24.8 µM,–,–,26.7 µM,44.1 µM,–
CCCCCCCCCCCCCCCc1cccc(O)c1O,90.4 µM,–,–,–,–,–
CCCCCCCCCCc1ccccc1C(=O)O,–,–,–,68.6 µM,–,–
O=C(O)[C@H]1/C(=C/CO)O[C@@H]2CC(=O)N21 [antibiotic MM 14151],–,–,–,–,–,1.75 µM
CCCCCCCCCCc1cccc(O)c1C(=O)O,–,–,–,43.1 µM,–,–
CCCCCCCCCCCCCCCCCc1cccc(O)c1C(=O)O,2.65 µM,1.85 µM,22 µM,5.04 µM,24.1 µM,77 µM
CCCCCCCCCCc1cccc(O)c1,19.1 µM,17.4 µM,–,8.1 µM,–,–
CCCCCCCCCCCCCCCc1cccc(OC)c1C(=O)O,6.89 µM,1.65 µM,60.6 µM,2.2 µM,30.3 µM,> 91 µM
CCC(C)CCCCCCCCCCCCc1cccc(O)c1C(=O)O (centres undefined),85.5 µM,–,–,27.5 µM,99.2 µM,–
"C=CC/C=C\C/C=C\CCCCCCCc1cccc(O)c1C(=O)O [6-[8(Z),11(Z),14-pentadecatrienyl]salicylic acid]",4.08 µM,3.21 µM,90.5 µM,2.33 µM,21 µM,72.9 µM
